{"source": "ChEMBL document CHEMBL1201862", "about": "“PubChem BioAssay data set” (2004)", "experiment_in_all_cases": "DTP human tumour cell line panel, 48 h", "key": {"[1]": {"test_system": "XF498"}, "[2]": {"test_system": "BT-549"}, "[3]": {"test_system": "DMS-273"}, "[4]": {"test_system": "DMS-114"}, "[5]": {"test_system": "LXFL 529"}, "[6]": {"test_system": "DLD-1"}, "[7]": {"test_system": "KM-20L2"}, "[8]": {"test_system": "RXF 631"}, "[9]": {"test_system": "HOP-18"}}, "note": "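Test compounds were applied to cells in 96-well plates for 48 hours at 5 doses. GI50 marks 50% less growth.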 Activity calls are given as the source filed them. Rule as the data show it: active = GI50 up to about 1.1 µM and inactive = higher."}
{"smiles": "COC1=CC(=O)c2c(O)c3c(c(O)c2C1=O)C[C@](C)(O)C[C@@H]3O", "values": [{"measurement": "GI50", "setting": "[1]", "value": "2.86 µM (inactive)"}, {"measurement": "GI50", "setting": "[2]", "value": "7.76 µM (inactive)"}, {"measurement": "GI50", "setting": "[3]", "value": "1.57 µM (inactive)"}, {"measurement": "GI50", "setting": "[4]", "value": "1.46 µM (inactive)"}, {"measurement": "GI50", "setting": "[5]", "value": "3.81 µM (inactive)"}, {"measurement": "GI50", "setting": "[6]", "value": "1.31 µM (inactive)"}, {"measurement": "GI50", "setting": "[7]", "value": "> 100 µM (inactive)"}, {"measurement": "GI50", "setting": "[8]", "value": "1.95 µM (inactive)"}]}
{"smiles": "N=C(N)NS(=O)(=O)c1ccc(Nc2c3ccccc3nc3c(C(=O)Nc4ccc(S(N)(=O)=O)cc4)ccc(Cl)c23)cc1", "values": [{"measurement": "GI50", "setting": "[1]", "value": "> 100 µM (inactive)"}, {"measurement": "GI50", "setting": "[3]", "value": "> 100 µM (inactive)"}, {"measurement": "GI50", "setting": "[4]", "value": "> 100 µM (inactive)"}, {"measurement": "GI50", "setting": "[5]", "value": "> 100 µM (inactive)"}, {"measurement": "GI50", "setting": "[9]", "value": "> 100 µM (inactive)"}, {"measurement": "GI50", "setting": "[6]", "value": "> 100 µM (inactive)"}, {"measurement": "GI50", "setting": "[7]", "value": "> 100 µM (inactive)"}, {"measurement": "GI50", "setting": "[8]", "value": "> 100 µM (inactive)"}]}
{"smiles": "CC(C)C1CC[C@@H](C)C[C@@]1(O)CC(N)=O", "note": "(some centres not stated)", "values": [{"measurement": "GI50", "setting": "[1]", "value": "0.0344 µM (active)"}, {"measurement": "GI50", "setting": "[3]", "value": "> 100 µM (inactive)"}, {"measurement": "GI50", "setting": "[4]", "value": "> 100 µM (inactive)"}, {"measurement": "GI50", "setting": "[5]", "value": "> 100 µM (inactive)"}, {"measurement": "GI50", "setting": "[9]", "value": "> 100 µM (inactive)"}, {"measurement": "GI50", "setting": "[6]", "value": "> 100 µM (inactive)"}, {"measurement": "GI50", "setting": "[7]", "value": "> 100 µM (inactive)"}, {"measurement": "GI50", "setting": "[8]", "value": "> 100 µM (inactive)"}]}
{"smiles": "O=C(NCCCCNc1cccccc1=O)OCc1ccccc1", "values": [{"measurement": "GI50", "setting": "[3]", "value": "> 100 µM (inactive)"}, {"measurement": "GI50", "setting": "[4]", "value": "56.4 µM (inactive)"}, {"measurement": "GI50", "setting": "[5]", "value": "> 100 µM (inactive)"}, {"measurement": "GI50", "setting": "[9]", "value": "> 100 µM (inactive)"}, {"measurement": "GI50", "setting": "[6]", "value": "> 100 µM (inactive)"}, {"measurement": "GI50", "setting": "[7]", "value": "> 100 µM (inactive)"}, {"measurement": "GI50", "setting": "[8]", "value": "> 100 µM (inactive)"}]}
{"smiles": "COC(=O)C1CC2c3c(c4ccccc4n3C)CC(C1=O)N2C", "note": "(configuration not stated)", "values": [{"measurement": "GI50", "setting": "[3]", "value": "20.2 µM (inactive)"}, {"measurement": "GI50", "setting": "[4]", "value": "21.2 µM (inactive)"}, {"measurement": "GI50", "setting": "[5]", "value": "39 µM (inactive)"}, {"measurement": "GI50", "setting": "[9]", "value": "40 µM (inactive)"}, {"measurement": "GI50", "setting": "[6]", "value": "40.9 µM (inactive)"}, {"measurement": "GI50", "setting": "[7]", "value": "39.8 µM (inactive)"}, {"measurement": "GI50", "setting": "[8]", "value": "63.4 µM (inactive)"}]}
{"smiles": "CC(=O)C1(O)CC2(c3ccccc3)C(=O)C1(c1ccccc1)C(c1ccccc1)=C2c1ccccc1", "note": "(configuration not stated)", "values": [{"measurement": "GI50", "setting": "[1]", "value": "6.24 µM (inactive)"}, {"measurement": "GI50", "setting": "[3]", "value": "44.3 µM (inactive)"}, {"measurement": "GI50", "setting": "[4]", "value": "10.9 µM (inactive)"}, {"measurement": "GI50", "setting": "[5]", "value": "> 100 µM (inactive)"}, {"measurement": "GI50", "setting": "[6]", "value": "> 100 µM (inactive)"}, {"measurement": "GI50", "setting": "[7]", "value": "> 100 µM (inactive)"}, {"measurement": "GI50", "setting": "[8]", "value": "89.1 µM (inactive)"}]}
{"smiles": "COc1cc(C(=O)C(CO)Oc2ccccc2OC)ccc1O", "note": "(configuration not stated)", "values": [{"measurement": "GI50", "setting": "[3]", "value": "> 100 µM (inactive)"}, {"measurement": "GI50", "setting": "[4]", "value": "> 100 µM (inactive)"}, {"measurement": "GI50", "setting": "[5]", "value": "> 100 µM (inactive)"}, {"measurement": "GI50", "setting": "[9]", "value": "> 100 µM (inactive)"}, {"measurement": "GI50", "setting": "[6]", "value": "> 100 µM (inactive)"}, {"measurement": "GI50", "setting": "[7]", "value": "> 100 µM (inactive)"}, {"measurement": "GI50", "setting": "[8]", "value": "> 100 µM (inactive)"}]}
